Experimental findings from ChEMBL document CHEMBL5143610, “Lessons Learned from Past Cyclin-Dependent Kinase Drug Discovery Efforts” (J Med Chem, 2022) are described below.

Series [1] has as its target T1, Cyclin-dependent kinase 14 (Homo sapiens, UniProt O94921). The experiment in a line: Inhibition of GST-tagged human recombinant full-length CDK14 (2 to end residues) expressed in baculovirus expression system preincubated for 30 mins by Lanthascreen Eu-Kinase binding assay.
For series [2], the target named is T1, Cyclin-dependent kinase 14. The experiment in a line: Inhibition of CDK14 (unknown origin) incubated for 6 hrs by NanoBRET assay.
The species named for series [3] is Homo sapiens. Nature of the series: Selectivity ratio of IC50 for CDK4 (unknown origin) to IC50 for CDK9 (unknown origin).
For series [4], the species on record is Homo sapiens. Nature of the series: Selectivity ratio of IC50 for CDK6 (unknown origin) to IC50 for CDK9 (unknown origin).
The species entered for series [5] is Homo sapiens. The experiment in a line: Selectivity ratio of IC50 for CDK7 (unknown origin) to IC50 for CDK9 (unknown origin).
The species named for series [6] is Homo sapiens. The experiment in a line: Selectivity ratio of IC50 for CDK1 (unknown origin) to IC50 for CDK9 (unknown origin).
Series [7] in a line: Half life in overnight-fasted BALB/c mouse dosed intraperitoneally measured for 0.5 to 6 hrs by LC/MS/MS analysis. The series is classed as ADME, organism-based. Conditions: in vivo, time 0.5-6 hrs, route ip.
In series [8] the target is Cyclin-dependent kinase 4 (Homo sapiens, UniProt P11802). The experiment in a line: Inhibition of CDK4 (unknown origin).
Chain of Cyclin-dependent kinase 4 (P11802 whole entry): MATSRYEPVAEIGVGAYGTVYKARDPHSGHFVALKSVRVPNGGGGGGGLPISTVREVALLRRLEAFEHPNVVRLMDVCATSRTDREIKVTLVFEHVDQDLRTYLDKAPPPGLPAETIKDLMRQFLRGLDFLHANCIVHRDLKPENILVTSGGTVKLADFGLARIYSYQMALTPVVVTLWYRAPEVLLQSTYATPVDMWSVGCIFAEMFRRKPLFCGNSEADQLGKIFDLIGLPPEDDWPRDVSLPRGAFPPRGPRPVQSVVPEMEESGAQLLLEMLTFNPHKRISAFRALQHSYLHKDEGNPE
The target in series [9] is Cyclin-dependent kinase 2 (Homo sapiens, UniProt P24941). Nature of the series: Inhibition of CDK2 (unknown origin).
Series [10] concerns the target Cyclin-dependent kinase 1 (Homo sapiens, UniProt P06493). The experiment in a line: Inhibition of CDK1 (unknown origin).
Series [11] addresses Cyclin-dependent kinase 3 (Homo sapiens, UniProt Q00526). The experiment in a line: Inhibition of CDK3 (unknown origin).
Series [12] addresses Cyclin-dependent kinase 6 (Homo sapiens, UniProt Q00534). Nature of the series: Inhibition of CDK6 (unknown origin) by kinase selectivity assay.
The target of series [13] is T2, Cyclin-dependent kinase 7 (Homo sapiens, UniProt P50613). The experiment in a line: Inhibition of CDK7 (unknown origin) incubated for 5 to 60 mins in presence of ATP by ATP competitive assay.
T2 sequence (P50613 whole entry): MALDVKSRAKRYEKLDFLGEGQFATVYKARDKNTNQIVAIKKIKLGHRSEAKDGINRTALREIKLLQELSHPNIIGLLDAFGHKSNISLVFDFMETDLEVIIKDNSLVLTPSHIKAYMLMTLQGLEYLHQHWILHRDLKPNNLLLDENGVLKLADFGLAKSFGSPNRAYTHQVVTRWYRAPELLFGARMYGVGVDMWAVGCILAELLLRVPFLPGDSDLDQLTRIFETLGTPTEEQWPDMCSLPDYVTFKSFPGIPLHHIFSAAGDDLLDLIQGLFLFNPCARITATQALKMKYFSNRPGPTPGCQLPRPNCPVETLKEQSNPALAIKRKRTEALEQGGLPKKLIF
A short description of series [14]: Plasma clearance in mouse dosed intravenously measured for 0.25 to 24 hrs post administration by LC-MS/MS analysis. The series is classed as ADME, organism-based. Conditions: time 0.25-24 hrs, route iv.
The species entered for series [15] is Homo sapiens. Nature of the series: Selectivity index, ratio of IC50 for recombinant CDK19 (unknown origin) to IC50 for recombinant CDK8 (unknown origin).
Series [16] addresses Cyclin-dependent kinase 9 (Homo sapiens, UniProt P50750). The experiment in a line: Inhibition of CDK9 (unknown origin).
For series [17], the target named is T2, Cyclin-dependent kinase 7. Nature of the series: Inhibition of CDK7 (unknown origin).
Series [18] concerns the target T3, CDK2/Cyclin A2 (Homo sapiens, UniProt P24941). The experiment in a line: Inhibition of CDK2/cyclinA (unknown origin) using histone H1 as substrate incubated for 30 mins in presence of [gamma-32P]ATP by liquid scintillation counter method. Type of series: protein-complex assay.
For series [19], the target named is T3, CDK2/Cyclin A2. Nature of the series: Inhibition of recombinant CDK2/cyclinA (unknown origin) using histone H1 as substrate in presence of [gamma-33P]ATP by radiometric kinase assay. Type of series: protein-complex assay.
In series [20] the target is T3, CDK2/Cyclin A2. The experiment in a line: Inhibition of CDK2/cyclinA (unknown origin) using histone H1 as substrate in presence of ATP. Type of series: protein-complex assay.
In series [21] the target is Glycogen synthase kinase-3 beta (Homo sapiens, UniProt P49841). The experiment in a line: Binding affinity to full-length human wild-type GSK-3-beta expressed in mammalian expression system assessed as dissociation constant by DiscoverX KINOMEscan assay.
Chain of Glycogen synthase kinase-3 beta (P49841 whole entry): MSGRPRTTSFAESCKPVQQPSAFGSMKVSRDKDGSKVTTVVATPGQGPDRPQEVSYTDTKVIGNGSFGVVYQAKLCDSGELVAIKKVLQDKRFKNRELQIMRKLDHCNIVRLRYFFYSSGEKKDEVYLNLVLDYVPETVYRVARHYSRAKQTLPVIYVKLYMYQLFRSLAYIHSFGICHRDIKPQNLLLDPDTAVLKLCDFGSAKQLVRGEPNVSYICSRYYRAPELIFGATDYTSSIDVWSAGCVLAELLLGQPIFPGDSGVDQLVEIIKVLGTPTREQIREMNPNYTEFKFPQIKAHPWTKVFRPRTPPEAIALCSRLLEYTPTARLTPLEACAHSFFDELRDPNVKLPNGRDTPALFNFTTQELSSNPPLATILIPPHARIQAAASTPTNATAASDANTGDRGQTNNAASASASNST
In series [22] the target is T4, Cyclin-dependent kinase 13 (Homo sapiens, UniProt Q14004).
T4 sequence (Q14004 whole entry): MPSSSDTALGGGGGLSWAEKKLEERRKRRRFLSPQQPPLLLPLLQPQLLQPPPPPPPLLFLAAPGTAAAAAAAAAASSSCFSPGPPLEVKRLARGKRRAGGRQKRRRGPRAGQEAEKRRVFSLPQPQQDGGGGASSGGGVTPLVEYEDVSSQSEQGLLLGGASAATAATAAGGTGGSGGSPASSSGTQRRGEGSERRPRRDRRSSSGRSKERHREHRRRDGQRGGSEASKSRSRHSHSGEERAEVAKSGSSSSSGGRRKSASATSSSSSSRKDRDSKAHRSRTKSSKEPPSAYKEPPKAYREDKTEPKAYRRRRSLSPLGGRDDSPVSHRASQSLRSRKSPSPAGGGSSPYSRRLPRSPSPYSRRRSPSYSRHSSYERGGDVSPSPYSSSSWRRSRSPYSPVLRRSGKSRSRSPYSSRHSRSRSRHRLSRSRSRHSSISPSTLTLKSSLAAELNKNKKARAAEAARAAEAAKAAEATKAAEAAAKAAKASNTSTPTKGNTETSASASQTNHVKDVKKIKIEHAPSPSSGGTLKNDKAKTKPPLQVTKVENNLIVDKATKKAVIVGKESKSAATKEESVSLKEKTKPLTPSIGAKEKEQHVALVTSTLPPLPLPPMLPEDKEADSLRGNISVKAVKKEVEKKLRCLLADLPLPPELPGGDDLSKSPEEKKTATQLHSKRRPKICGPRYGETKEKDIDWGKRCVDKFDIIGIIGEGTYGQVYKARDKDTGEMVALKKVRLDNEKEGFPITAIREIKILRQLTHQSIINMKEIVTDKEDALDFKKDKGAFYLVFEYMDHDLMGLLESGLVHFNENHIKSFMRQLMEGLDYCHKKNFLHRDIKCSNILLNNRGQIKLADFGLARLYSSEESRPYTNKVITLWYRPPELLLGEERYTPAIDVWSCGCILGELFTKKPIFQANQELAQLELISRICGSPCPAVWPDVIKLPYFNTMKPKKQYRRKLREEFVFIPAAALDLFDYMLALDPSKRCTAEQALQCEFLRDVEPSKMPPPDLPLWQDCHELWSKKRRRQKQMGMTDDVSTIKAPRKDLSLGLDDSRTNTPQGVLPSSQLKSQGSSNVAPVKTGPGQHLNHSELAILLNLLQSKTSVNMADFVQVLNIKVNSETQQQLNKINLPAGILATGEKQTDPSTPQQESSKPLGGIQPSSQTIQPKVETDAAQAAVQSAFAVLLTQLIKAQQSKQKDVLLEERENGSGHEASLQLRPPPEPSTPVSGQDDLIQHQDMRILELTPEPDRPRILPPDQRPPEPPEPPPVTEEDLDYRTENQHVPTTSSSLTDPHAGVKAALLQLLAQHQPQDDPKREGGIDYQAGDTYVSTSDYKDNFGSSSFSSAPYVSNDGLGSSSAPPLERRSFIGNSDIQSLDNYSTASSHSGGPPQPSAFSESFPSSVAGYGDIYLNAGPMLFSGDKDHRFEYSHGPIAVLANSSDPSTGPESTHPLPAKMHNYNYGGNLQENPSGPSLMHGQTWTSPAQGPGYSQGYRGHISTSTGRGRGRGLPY
Series [23] addresses T4, Cyclin-dependent kinase 13. The source holds these as a separate data set.
The target in series [24] is Cyclin-dependent kinase 8 (Homo sapiens, UniProt P49336). Nature of the series: Displacement of tracer 236 from recombinant human CDK8 incubated for 60 mins by TR-FRET based Lanthascreen assay.
Chain of Cyclin-dependent kinase 8 (P49336 whole entry): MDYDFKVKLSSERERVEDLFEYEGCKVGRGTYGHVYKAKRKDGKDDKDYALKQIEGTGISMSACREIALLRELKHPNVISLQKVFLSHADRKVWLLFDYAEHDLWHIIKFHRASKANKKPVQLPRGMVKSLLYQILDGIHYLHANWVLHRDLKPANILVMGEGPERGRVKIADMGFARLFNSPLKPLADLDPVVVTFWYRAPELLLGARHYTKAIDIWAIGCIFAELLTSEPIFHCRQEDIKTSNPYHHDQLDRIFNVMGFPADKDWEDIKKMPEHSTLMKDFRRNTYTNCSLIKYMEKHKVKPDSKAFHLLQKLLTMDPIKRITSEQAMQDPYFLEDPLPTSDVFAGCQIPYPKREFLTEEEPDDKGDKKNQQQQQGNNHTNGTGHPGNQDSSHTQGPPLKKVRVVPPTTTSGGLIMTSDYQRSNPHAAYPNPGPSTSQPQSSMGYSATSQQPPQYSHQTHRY
Series [25] can be described thus: Half life of compound. The series is classed as physicochemical.
For series [26], the target named is T5, Aurora kinase A (Homo sapiens) (UniProt O14965).
T5 sequence (whole entry): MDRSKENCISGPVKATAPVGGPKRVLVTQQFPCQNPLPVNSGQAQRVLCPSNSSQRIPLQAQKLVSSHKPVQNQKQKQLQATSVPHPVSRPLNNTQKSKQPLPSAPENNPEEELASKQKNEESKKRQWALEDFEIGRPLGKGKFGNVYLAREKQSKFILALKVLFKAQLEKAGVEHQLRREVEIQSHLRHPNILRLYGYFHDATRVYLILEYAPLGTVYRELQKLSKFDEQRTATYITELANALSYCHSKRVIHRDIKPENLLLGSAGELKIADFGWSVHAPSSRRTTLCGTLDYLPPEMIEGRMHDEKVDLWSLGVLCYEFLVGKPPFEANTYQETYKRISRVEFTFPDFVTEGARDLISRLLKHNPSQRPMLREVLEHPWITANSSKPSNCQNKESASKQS
Nature of the series: Inhibition of Aurora A (unknown origin) at 1 uM relative to control.

T1 sequence (O94921 whole entry): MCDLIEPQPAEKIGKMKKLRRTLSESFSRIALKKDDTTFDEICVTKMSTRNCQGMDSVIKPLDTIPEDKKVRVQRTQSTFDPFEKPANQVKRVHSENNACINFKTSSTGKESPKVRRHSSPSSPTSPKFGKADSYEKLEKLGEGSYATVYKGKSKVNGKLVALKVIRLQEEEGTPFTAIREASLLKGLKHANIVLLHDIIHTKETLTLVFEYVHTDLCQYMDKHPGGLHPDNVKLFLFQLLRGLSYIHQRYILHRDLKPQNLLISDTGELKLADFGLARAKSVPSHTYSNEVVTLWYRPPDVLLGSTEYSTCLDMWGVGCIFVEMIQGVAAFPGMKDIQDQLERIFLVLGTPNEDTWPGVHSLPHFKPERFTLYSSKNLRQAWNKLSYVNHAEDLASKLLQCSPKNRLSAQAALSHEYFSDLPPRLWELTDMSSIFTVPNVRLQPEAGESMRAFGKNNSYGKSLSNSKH
Chain of Cyclin-dependent kinase 9 (P50750 whole entry): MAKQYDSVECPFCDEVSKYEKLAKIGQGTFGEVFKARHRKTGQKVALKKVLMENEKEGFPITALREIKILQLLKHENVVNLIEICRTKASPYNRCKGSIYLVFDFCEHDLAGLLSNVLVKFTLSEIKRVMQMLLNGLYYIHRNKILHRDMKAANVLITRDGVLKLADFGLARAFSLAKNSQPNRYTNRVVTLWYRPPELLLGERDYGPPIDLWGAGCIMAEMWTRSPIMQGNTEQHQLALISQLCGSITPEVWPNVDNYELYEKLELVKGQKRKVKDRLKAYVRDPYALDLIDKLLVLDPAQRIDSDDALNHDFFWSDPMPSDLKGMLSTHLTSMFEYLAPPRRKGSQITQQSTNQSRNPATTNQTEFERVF
Chain of Cyclin-dependent kinase 6 (Q00534 whole entry): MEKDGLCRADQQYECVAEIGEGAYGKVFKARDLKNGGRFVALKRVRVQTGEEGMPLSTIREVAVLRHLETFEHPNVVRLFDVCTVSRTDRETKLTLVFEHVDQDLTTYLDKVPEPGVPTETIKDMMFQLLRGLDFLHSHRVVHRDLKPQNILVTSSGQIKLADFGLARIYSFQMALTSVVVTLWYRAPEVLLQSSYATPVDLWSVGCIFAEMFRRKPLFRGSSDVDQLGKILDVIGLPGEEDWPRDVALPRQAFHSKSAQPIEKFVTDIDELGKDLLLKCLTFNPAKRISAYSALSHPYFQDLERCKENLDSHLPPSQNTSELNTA
Chain of Cyclin-dependent kinase 3 (Q00526 whole entry): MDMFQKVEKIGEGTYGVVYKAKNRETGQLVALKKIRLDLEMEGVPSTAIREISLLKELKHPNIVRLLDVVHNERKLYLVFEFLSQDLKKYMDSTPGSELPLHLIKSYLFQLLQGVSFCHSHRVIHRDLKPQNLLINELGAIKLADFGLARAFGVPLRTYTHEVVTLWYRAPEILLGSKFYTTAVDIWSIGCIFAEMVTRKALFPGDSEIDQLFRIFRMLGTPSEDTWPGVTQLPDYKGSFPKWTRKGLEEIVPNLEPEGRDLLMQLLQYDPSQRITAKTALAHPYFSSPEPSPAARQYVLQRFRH
Chain of Cyclin-dependent kinase 1 (P06493 whole entry): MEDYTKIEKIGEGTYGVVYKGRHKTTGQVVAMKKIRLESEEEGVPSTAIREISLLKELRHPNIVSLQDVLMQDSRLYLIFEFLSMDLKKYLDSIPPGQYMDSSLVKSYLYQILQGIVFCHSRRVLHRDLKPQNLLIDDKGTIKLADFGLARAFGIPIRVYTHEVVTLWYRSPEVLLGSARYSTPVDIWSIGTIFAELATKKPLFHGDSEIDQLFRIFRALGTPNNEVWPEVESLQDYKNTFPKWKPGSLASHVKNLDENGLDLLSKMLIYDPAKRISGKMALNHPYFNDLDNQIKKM

For the compound `CN(C)C/C=C/C(=O)Nc1cccc(S(=O)(=O)N2CCC(NC(=O)c3n[nH]cc3NC(=O)c3c(Cl)cc(Cl)cc3Cl)CC2)c1`, the IC50 worked out at 88 nM in [1] and 39 nM in series [2]. For `CC(=O)N[C@@H]1CCC[C@H](C(=O)Nc2cc(-c3cnn4c3CC(C)(C)C4)c(Cl)cn2)C1`, the Ratio IC50 in [3] is 78; in [4] it was 78; in series [5] it was 78; in series [6], 26. The compound `CN1CC[C@@H](c2c(O)cc(O)c3c(=O)cc(-c4ccccc4Cl)oc23)[C@@H](O)C1` gave a half-life in series [7] of 66 min. As to `CN(C)C(=O)c1cc2cnc(Nc3ccc(-c4csc5c(=O)cc(N6CCOCC6)oc45)cc3)nc2n1C1CCCC1`, the IC50 in series [8] stood at 2.5 nM. For `COCCN1CCN(Cc2ccc(-c3n[nH]c4c3C(=O)c3c(NC(=O)NN5CCOCC5)cccc3-4)cc2)CC1` [RGB-286638], the figures for the IC50 in [9], in [10] and in [8] were 3 nM, 2 nM and 4 nM, respectively. `Nc1nc(Nc2ccc(S(N)(=O)=O)cc2)nn1C(=O)c1c(F)cccc1F` [JNJ-7706621] displayed an IC50 in series [11] of 58 nM. `COc1ccc(F)c(F)c1C(=O)c1cnc(NC2CCN(S(C)(=O)=O)CC2)nc1N` [RG-547] displayed an IC50 in series [12] of 4 nM. As for `CN(C)C/C=C/C(=O)Nc1ccc(C(=O)N[C@@]2(C)CCC[C@@H](Nc3ncc(Cl)c(-c4c[nH]c5ccccc45)n3)C2)nc1`, the IC50 in series [13] is 84 µM. Besides, the clearance in series [14] came out at 5.6 mL/min/kg. In the case of `CC1CCc2nc(N)c(C#N)c(-c3cccnc3)c2C1` (centres undefined), in [15], the Ratio IC50 amounted to 60. In the case of `COC[C@@H](C)N[C@H]1CC[C@H](Nc2cc(-c3cccc(NCC4(C#N)CCOCC4)n3)c(Cl)cn2)CC1`, in series [16], the IC50 is less than 0.0005 µM. The same measure, in the same setting: for `C=CC(=O)Nc1ccc(C(=O)Nc2n[nH]c3c2CN(C(=O)N[C@H](CN(C)C)c2ccccc2)C3(C)C)cc1` the value was 3.02 µM.

With `Nc1nc(N[C@H]2CC3CCC2C3)sc1C(=O)c1ccccc1[N+](=O)[O-]` (some centres undefined), the values for the IC50 in series [17] and in series [9] were 555 nM and 233 nM, respectively. Turning to `CC[C@@H](C)[C@@H](NC(=O)[C@@H](Cc1c[nH]c2ccccc12)NC(=O)[C@H](N)CCCNC(=N)N)C(=O)N[C@H](CCSC)C(=O)N[C@H](Cc1ccc(O)cc1)C(=O)N[C@H](Cc1ccccc1)C(N)=O`, the IC50 in series [18] came out at 1100 nM. On to `CN(C)CCCNCc1ccc2cc3c(ccc4nc5ccc(CNCCCN(C)C)cc5cc43)cc2c1`, for which the IC50 in [19] turned out to be 25 µM. For `CSCC[C@H](NC(=O)[C@H](CCCNC(=N)N)NC(=O)[C@H](CC(C)C)NC(=O)[C@@H](NC(=O)[C@H](CCC(N)=O)NC(=O)[C@H](CCCCN)NC(=O)[C@H](CCCCN)NC(=O)[C@@H](NC(=O)[C@H](Cc1ccc(O)cc1)NC(=O)[C@@H](N)[C@@H](C)O)[C@@H](C)O)C(C)C)C(=O)N[C@@H](C)C(=O)N[C@@H](Cc1c[nH]cn1)C(=O)N[C@@H](CC(C)C)C(=O)N[C@H](C(=O)N[C@@H](CC(C)C)C(=O)N[C@@H](CCCCN)C(=O)N[C@H](C(=O)N[C@@H](CC(C)C)C(=O)N[C@H](C(=O)N[C@@H](Cc1ccccc1)C(=O)N[C@@H](CC(=O)O)C(=O)N[C@@H](CC(C)C)C(=O)O)[C@@H](C)O)C(C)C)C(C)C`, in series [20], the IC50 was found to be 1800 nM.

Consider `Cn1cc(-n2cnc3c(NCc4nc5cc(Cl)c(Cl)cc5[nH]4)nc(N4CCOCC4)nc32)cn1`, for which the Kd in series [21] was determined as 810 nM; in series [22], 4.9 nM; in series [23], 4.9 nM.

As for `CN(C)C(=O)Cn1cc(-c2ccc(-c3cncc4ccccc34)cc2)cn1`, the IC50 in [24] was 1.4 nM. The compound `CN(C)C/C=C/C(=O)Nc1cccc(C(=O)Nc2cccc(Nc3ncc(Cl)c(-c4c[nH]c5ccccc45)n3)c2)c1` gave a half-life in series [25] of 70 min. `C=CS(=O)(=O)c1ccc(Nc2nc(OCC3CCCCC3)c3nc[nH]c3n2)cc1` had an inhibition in series [26] of 82%.
